Earlier results, collected in patent US20250090617A1, “FORMULATIONS FOR TREATING OBESITY AND DIABETES AND FOR PROVIDING OTHER HEALTH RELATED BENEFITS” (Healthrite Partners, LLC, priority 2019, published 2025).

tested on: cellular ATP; conditions: several studies, including clinical studies in humans

Compound	effect on cellular ATP
OC[C@H]1O[C@@H](n2cnc3c(O)ncnc32)[C@H](O)[C@@H]1O [Inosine]	did not affect ATP levels
Cc1nc(-c2ccc(OCC(C)C)c(C#N)c2)sc1C(=O)O [Febuxostat]	increase in cellular ATP
Oc1ncnc2[nH]ncc12 [Allopurinol]	increase in cellular ATP
